# In ChEMBL document CHEMBL6071138, “Design, synthesis, anti-tumor activity and mechanism of novel PROTACs as degraders of PD-L1 and inhibitors of PD-1/PD-L1 interaction” (Bioorg Med Chem, 2024):
# Active and inactive are the calls of the source. The rule behind the calls is not given here.
# Tests used:
# [1] = molecular target: T1, Protein cereblon/Programmed cell death 1 ligand 1 (Homo sapiens) (UniProt Q9NZQ7+Q96SW2); test: PROTAC activity at CRBN/PD-L1 in human HCC827 cells assessed as induction of PD-L1 protein degradation incubated for 24 hrs by Western blot analysis; format: cell-based; settings: dose 0.25-10 µM
# HCC827 [2] = test: Effect on PD-L1 protein expression in human HCC827 cells at 10 uM incubated for 24 hrs by Western blot analysis; format: functional, cell-based
# [3] = molecular target: von Hippel-Lindau disease tumor suppressor/Programmed cell death 1 ligand 1 (Homo sapiens) (UniProt P40337+Q9NZQ7); test: PROTAC activity at VHL/PD-L1 in human HCC827 cells assessed as induction of PD-L1 protein degradation incubated for 24 hrs by Western blot analysis; format: cell-based; settings: dose 0.25-10 µM
# Mus musculus [4] = test: Immunoregulatory activity in female C57BL/6 mouse model implanted with mouse MC38 cells assessed as increase in perforin expression at 10 to 20 mg/kg, ip administered once daily for 15 days by hematoxylin staining based immunohistochemistry; format: functional, organism-based; settings: dose 10-20 mg/kg, time 15.0 day
# Mus musculus [5] = test: Immunoregulatory activity in female C57BL/6 mouse model implanted with mouse MC38 cells assessed as increase in CXCR3 mRNA level in tumor at 10 to 20 mg/kg, ip administered once daily for 15 days by qPCR analysis; format: functional, organism-based; settings: dose 10-20 mg/kg, time 15.0 day
# [6] = molecular target: T1, Protein cereblon/Programmed cell death 1 ligand 1 (Homo sapiens); test: PROTAC activity at CRBN/PD-L1 in human HCC827 cell cytoplasm assessed as decrease in PD-L1 expression in cytoplasm at 10 uM incubated for 24 hrs by Western blotting; format: subcellular
# MC-38 [7] = test: Antitumor activity against mouse MC38 cells implanted in female C57BL/6 mouse model assessed as tumor growth inhibition at 20 mg/kg, ip administered once daily for 15 days relative to control; format: functional; settings: MC-38, 360 h, time 15 day, read-out: TGI
# [8] = molecular target: T1, Protein cereblon/Programmed cell death 1 ligand 1 (Homo sapiens); test: PROTAC activity at CRBN/PD-L1 in human HCC827 cells assessed as induction of PD-L1 degradation at 10 uM preincubated with 5-((5-((2-chloro-2'-fluoro-[1,1'-biphenyl]-3-yl)methoxy)-2-(((2-hydroxyethyl)amino)methyl)phenoxy)methyl)nicotinonitrile for 4 hrs followed by compound addition and measured after 24 hrs by Western blotting; format: cell-based
# [9] = molecular target: Protein cereblon/Programmed cell death 1 ligand 1 (Mus musculus) (UniProt Q9EP73+Q8C7D2); test: PROTAC activity at CRBN/PD-L1 in mouse MC38 cells assessed as induction of PD-L1 protein degradation at 0.25 to 10 uM incubated for 24 hrs by Western blot analysis; format: cell-based; settings: dose 0.25-10 µM
# [10] = molecular target: T1, Protein cereblon/Programmed cell death 1 ligand 1 (Homo sapiens); test: PROTAC activity at CRBN/PD-L1 in human HCC827 cell membrane assessed as decrease in PD-L1 expression in membrane incubated for 24 hrs by flow cytometric analysis; format: cell membranes; settings: dose 2.5-10 µM
# [11] = molecular target: T1, Protein cereblon/Programmed cell death 1 ligand 1 (Homo sapiens); test: PROTAC activity at CRBN/PD-L1 in human SK-N-AS cells assessed as induction of PD-L1 protein degradation at 0.25 to 10 uM incubated for 24 hrs by Western blot analysis; format: cell-based; settings: dose 0.25-10 µM
# Mus musculus [12] = test: Immunoregulatory activity in female C57BL/6 mouse model implanted with mouse MC38 cells assessed as increase in CXCL10 mRNA level in tumor at 10 to 20 mg/kg, ip administered once daily for 15 days by qPCR analysis; format: functional, organism-based; settings: dose 10-20 mg/kg, time 15.0 day
# [13] = molecular target: T1, Protein cereblon/Programmed cell death 1 ligand 1 (Homo sapiens); test: PROTAC activity at CRBN/PD-L1 in human HCC827 cells assessed as induction of PD-L1 internalization at cell membrane by measuring decrease in fluorescence intensity of cell membrane at 10 uM incubated for 12 to 24 hrs by DAPI immunostaining based confocal scanning microscopic analysis; settings: time 12-24 hrs
# [14] = molecular target: T1, Protein cereblon/Programmed cell death 1 ligand 1 (Homo sapiens); test: PROTAC activity at CRBN/PD-L1 in human HCC827 cells assessed as induction of PD-L1 degradation at 10 uM preincubated with bafilomycin A1 for 4 hrs followed by compound addition and measured after 24 hrs by Western blotting; format: cell-based
# Mus musculus [15] = test: Immunoregulatory activity in female C57BL/6 mouse model implanted with mouse MC38 cells assessed as increase in CXCL9 mRNA level in tumor at 10 to 20 mg/kg, ip administered once daily for 15 days by qPCR analysis; format: functional, organism-based; settings: dose 10-20 mg/kg, time 15.0 day
# [16] = molecular target: T1, Protein cereblon/Programmed cell death 1 ligand 1 (Homo sapiens); test: PROTAC activity at CRBN/PD-L1 in human HCC827 cells assessed as induction of PD-L1 internalization at cell membrane by measuring increase in fluorescence intensity around nucleus at 10 uM incubated for 12 hrs by DAPI immunostaining based confocal scanning microscopic analysis
# [17] = molecular target: T1, Protein cereblon/Programmed cell death 1 ligand 1 (Homo sapiens); test: PROTAC activity at CRBN/PD-L1 in human HCC827 cells assessed as induction of PD-L1 degradation at 10 uM preincubated with MG132 for 4 hrs followed by compound addition and measured after 24 hrs by Western blotting; format: cell-based
# Mus musculus [18] = test: Immunoregulatory activity in female C57BL/6 mouse model implanted with mouse MC38 cells assessed as increase in CD8+/CD4+ ratio in tumor at 10 to 20 mg/kg, ip administered once daily for 15 days by flow cytometric analysis; format: functional, organism-based; settings: dose 10-20 mg/kg, time 15.0 day
# [19] = molecular target: T1, Protein cereblon/Programmed cell death 1 ligand 1 (Homo sapiens); test: PROTAC activity at CRBN/PD-L1 in human HCC827 cells assessed as induction of PD-L1 degradation at 10 uM preincubated with pomalidomide for 4 hrs followed by compound addition and measured after 24 hrs by Western blotting; format: cell-based
# HCC827 [20] = test: Antitumor activity against human HCC827 cells co-cultured with PMA-activated human Jurkat T cells assessed as T cell mediated tumor killing by measuring survival rate at 5 uM incubated for 24 hrs by CCK8 assay relative to control; format: functional; settings: read-out: Survival
# Mus musculus [21] = test: In vivo PROTAC activity at CRBN/PD-L1 in female C57BL/6 mouse implanted with mouse MC38 cells assessed as decrease in PD-L1 protein expression in tumor at 10 to 20 mg/kg, ip administered once daily for 15 days by hematoxylin staining based immunohistochemistry; format: functional, organism-based; settings: dose 10-20 mg/kg, time 15.0 day
# [22] = molecular target: T1, Protein cereblon/Programmed cell death 1 ligand 1 (Homo sapiens); test: PROTAC activity at CRBN/PD-L1 in human HCC827 cell membrane assessed as decrease in PD-L1 expression in membrane at 10 uM incubated for 24 hrs by Western blotting; format: cell membranes
# Mus musculus [23] = test: Immunoregulatory activity in female C57BL/6 mouse model implanted with mouse MC38 cells assessed as increase in granzyme B expression at 10 to 20 mg/kg, ip administered once daily for 15 days by hematoxylin staining based immunohistochemistry; format: functional, organism-based; settings: dose 10-20 mg/kg, time 15.0 day
# Mus musculus [24] = test: Immunoregulatory activity in female C57BL/6 mouse model implanted with mouse MC38 cells assessed as increase in CD8+/CD4+ ratio in lymph node at 10 to 20 mg/kg, ip administered once daily for 15 days by flow cytometric analysis; format: functional, organism-based; settings: dose 10-20 mg/kg, time 15.0 day
# MC-38 [25] = test: Antitumor activity against mouse MC38 cells implanted in female C57BL/6 mouse model assessed as tumor growth inhibition at 10 mg/kg, ip administered once daily for 15 days relative to control; format: functional; settings: MC-38, 360 h, time 15 day, read-out: TGI
# [26] = molecular target: T1, Protein cereblon/Programmed cell death 1 ligand 1 (Homo sapiens); test: PROTAC activity at CRBN/PD-L1 in human 786-0 cells assessed as induction of PD-L1 protein degradation at 0.25 to 10 uM incubated for 24 hrs by Western blot analysis; format: cell-based; settings: dose 0.25-10 µM
# [27] = molecular target: T1, Protein cereblon/Programmed cell death 1 ligand 1 (Homo sapiens); test: PROTAC activity at CRBN/PD-L1 in human HCC827 cells assessed as induction of PD-L1 protein degradation at 10 uM measured within 24 hrs by Western blot analysis relative to control; format: cell-based
# [28] = Binding affinity to C-terminal fused with Fc region of human IgG1 recombinant human PD-L1 extracellular domain (1 to 239 residues) extracted from HEK293 cells assessed as dissociation constant by MST analysis; format: cell-free
# [29] = Toxicity in female C57BL/6 mouse implanted with mouse MC38 cells assessed as effect on body weight at 10 to 20 mg/kg, ip administered once daily for 15 days; format: organism-based; settings: in vivo, 360 h, dose 10-20 mg/kg, time 15 day
# [30] = molecular target: Programmed cell death protein 1/Programmed cell death 1 ligand 1 (Homo sapiens, UniProt Q9NZQ7); test: Inhibition of human PD-1/PD-L1 interaction by HTRF assay; format: protein-complex assay
# HCC827 [31] = test: Antitumor activity against human HCC827 cells co-cultured with PMA-activated human Jurkat T cells assessed as T cell mediated tumor killing by measuring survival rate at 10 uM incubated for 24 hrs by CCK8 assay relative to control; format: functional; settings: read-out: Survival
# [32] = molecular target: T1, Protein cereblon/Programmed cell death 1 ligand 1 (Homo sapiens); test: PROTAC activity at CRBN/PD-L1 in human HCC827 cells assessed as induction of PD-L1 protein degradation at 20 uM measured within 24 hrs by Western blot analysis relative to control; format: cell-based
# T1 sequence (Q96SW2 whole entry, looked up): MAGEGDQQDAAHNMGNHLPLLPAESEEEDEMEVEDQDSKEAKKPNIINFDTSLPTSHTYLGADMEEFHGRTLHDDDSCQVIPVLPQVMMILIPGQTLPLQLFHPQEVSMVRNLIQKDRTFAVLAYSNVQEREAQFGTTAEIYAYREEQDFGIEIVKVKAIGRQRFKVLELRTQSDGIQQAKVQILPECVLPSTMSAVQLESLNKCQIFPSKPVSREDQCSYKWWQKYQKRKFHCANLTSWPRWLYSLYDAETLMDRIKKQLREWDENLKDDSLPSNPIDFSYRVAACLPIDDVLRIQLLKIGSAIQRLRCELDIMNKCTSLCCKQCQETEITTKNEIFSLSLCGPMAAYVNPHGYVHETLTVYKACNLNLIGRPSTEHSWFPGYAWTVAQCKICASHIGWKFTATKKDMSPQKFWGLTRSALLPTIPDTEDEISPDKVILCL
# T1 sequence (Q9NZQ7 whole entry, looked up): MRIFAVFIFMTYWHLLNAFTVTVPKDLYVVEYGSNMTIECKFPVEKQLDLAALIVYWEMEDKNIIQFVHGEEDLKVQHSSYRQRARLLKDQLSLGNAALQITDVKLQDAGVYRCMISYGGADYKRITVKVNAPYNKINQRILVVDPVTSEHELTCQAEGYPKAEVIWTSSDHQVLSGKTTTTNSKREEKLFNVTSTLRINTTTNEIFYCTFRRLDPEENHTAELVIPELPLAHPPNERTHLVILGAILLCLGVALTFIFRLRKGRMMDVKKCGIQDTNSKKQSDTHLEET
# Protein cereblon/Programmed cell death 1 ligand 1 (Mus musculus), sequence (Q8C7D2 whole entry partner): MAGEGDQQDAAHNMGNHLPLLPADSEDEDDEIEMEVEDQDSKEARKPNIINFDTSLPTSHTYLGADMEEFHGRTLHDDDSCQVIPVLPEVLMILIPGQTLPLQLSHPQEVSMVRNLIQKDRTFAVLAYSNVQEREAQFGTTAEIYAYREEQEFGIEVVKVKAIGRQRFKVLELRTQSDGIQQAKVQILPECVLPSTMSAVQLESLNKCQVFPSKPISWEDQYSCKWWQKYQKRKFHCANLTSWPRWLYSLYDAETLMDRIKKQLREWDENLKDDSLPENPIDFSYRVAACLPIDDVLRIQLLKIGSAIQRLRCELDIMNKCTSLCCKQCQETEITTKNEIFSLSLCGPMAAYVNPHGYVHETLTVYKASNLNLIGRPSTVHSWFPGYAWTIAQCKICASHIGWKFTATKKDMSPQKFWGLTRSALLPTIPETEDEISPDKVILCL
# Protein cereblon/Programmed cell death 1 ligand 1 (Mus musculus), sequence (Q9EP73 19-290 limits assumed): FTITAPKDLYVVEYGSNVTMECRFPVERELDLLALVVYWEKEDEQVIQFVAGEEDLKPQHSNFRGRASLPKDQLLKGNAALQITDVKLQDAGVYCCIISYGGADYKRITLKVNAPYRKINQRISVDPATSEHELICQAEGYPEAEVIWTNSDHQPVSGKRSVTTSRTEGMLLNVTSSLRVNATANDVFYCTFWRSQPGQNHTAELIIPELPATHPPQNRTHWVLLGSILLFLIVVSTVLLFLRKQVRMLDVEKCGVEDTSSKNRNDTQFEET
# Programmed cell death protein 1/Programmed cell death 1 ligand 1, sequence (Q15116 whole entry): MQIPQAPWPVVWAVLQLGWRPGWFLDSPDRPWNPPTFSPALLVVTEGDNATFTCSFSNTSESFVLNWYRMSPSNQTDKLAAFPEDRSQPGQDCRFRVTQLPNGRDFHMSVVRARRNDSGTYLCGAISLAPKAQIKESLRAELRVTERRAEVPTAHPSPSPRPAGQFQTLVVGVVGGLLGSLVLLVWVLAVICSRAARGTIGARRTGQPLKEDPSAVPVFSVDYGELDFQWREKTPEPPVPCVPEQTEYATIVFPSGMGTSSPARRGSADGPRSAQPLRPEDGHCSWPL
# Programmed cell death protein 1/Programmed cell death 1 ligand 1, sequence (Q9NZQ7 whole entry): as the sequence (Q9NZQ7 whole entry, looked up) above
# von Hippel-Lindau disease tumor suppressor/Programmed cell death 1 ligand 1 (Homo sapiens), sequence (P40337 whole entry, looked up): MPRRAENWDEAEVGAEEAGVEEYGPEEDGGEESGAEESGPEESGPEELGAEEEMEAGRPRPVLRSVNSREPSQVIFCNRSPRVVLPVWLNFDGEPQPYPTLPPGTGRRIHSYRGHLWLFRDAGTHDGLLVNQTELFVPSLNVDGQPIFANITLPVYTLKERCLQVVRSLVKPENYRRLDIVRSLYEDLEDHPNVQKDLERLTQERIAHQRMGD
# von Hippel-Lindau disease tumor suppressor/Programmed cell death 1 ligand 1 (Homo sapiens), sequence (Q9NZQ7 whole entry, looked up): as the sequence (Q9NZQ7 whole entry, looked up) above
compound,measurement,setting,value
N#Cc1cncc(COc2cc(OCc3cccc(-c4ccccc4F)c3Cl)ccc2CNCCCCCCCCNc2cccc3c2C(=O)N(C2CCC(=O)NC2=O)C3=O)c1 (stereo not given),Activity,[1],Dose-Dependent Effect
N#Cc1cncc(COc2cc(OCC3C=CC=C(c4ccccc4F)C3Cl)ccc2CNCCOCCOCCOCCOCCOCCOCCC(=O)Nc2cccc3c2CN(C2CCC(=O)NC2=O)C3=O)c1 (stereo not given),Activity,[1],Dose-Dependent Effect
Nc1cccc2c1C(=O)N(C1CCC(=O)NC1=O)C2=O (stereo not given),Activity,HCC827 [2],inactive
Cc1ncsc1-c1ccc([C@H](C)NC(=O)[C@@H]2C[C@@H](O)CN2C(=O)[C@@H](NC(=O)CCOCCOCCOCCOCCNCc2ccc(OCc3cccc(-c4ccccc4F)c3Cl)cc2OCc2cncc(C#N)c2)C(C)(C)C)cc1,Activity,[3],Dose-Dependent Effect
N#Cc1cncc(COc2cc(OCc3cccc(-c4ccccc4F)c3Cl)ccc2CNCc2cn(CCCCCC(=O)Nc3cccc4c3CN(C3CCC(=O)NC3=O)C4=O)nn2)c1 (stereo not given),Activity,[1],Dose-Dependent Effect
N#Cc1cncc(COc2cc(OCc3cccc(-c4ccccc4F)c3Cl)ccc2CNCCOCCOCCOCCNc2cccc3c2C(=O)N(C2CCC(=O)NC2=O)C3=O)c1 (stereo not given),Activity,Mus musculus [4],Active
same,Activity,Mus musculus [5],Active
same,Activity,[6],Active
same,inhibition in vivo at 20 mg/kg,MC-38 [7],54.9%
same,Activity,[8],inactive
same,Activity,[9],Active
same,Activity,[10],Dose-Dependent Effect
same,Activity,[11],Active
same,Activity,Mus musculus [12],Active
same,Activity,[13],Active
same,Activity,[14],inactive
same,Activity,Mus musculus [15],Active
same,Activity,[16],Active
same,Activity,[17],inactive
same,Activity,Mus musculus [18],Active
same,Activity,[19],inactive
same,viability at 5 µM,HCC827 [20],73.2%
same,Activity,Mus musculus [21],Active
same,Activity,[22],Active
same,Activity,Mus musculus [23],Active
same,Activity,Mus musculus [24],Active
same,inhibition in vivo at 10 mg/kg,MC-38 [25],34.6%
same,Activity,[26],Active
same,Activity,[27],58%
same,Kd,[28],251 nM
same,Activity,[1],Dose-Dependent Effect
same,Activity,[29],Non-Toxic
same,IC50,[30],219 nM
Cc1ncsc1-c1ccc([C@H](C)NC(=O)[C@@H]2C[C@@H](O)CN2C(=O)[C@@H](NC(=O)CCCNCc2ccc(OCc3cccc(-c4ccccc4F)c3Cl)cc2OCc2cncc(C#N)c2)C(C)(C)C)cc1,Activity,[3],Dose-Dependent Effect
N#Cc1cncc(COc2cc(OCc3cccc(-c4ccccc4F)c3Cl)ccc2CNCCCCCNc2cccc3c2C(=O)N(C2CCC(=O)NC2=O)C3=O)c1 (stereo not given),Activity,[1],Dose-Dependent Effect
N#Cc1cncc(COc2cc(OCc3cccc(-c4ccccc4F)c3Cl)ccc2CNCCOCCOCCNc2cccc3c2C(=O)N(C2CCC(=O)NC2=O)C3=O)c1 (stereo not given),Activity,Mus musculus [4],Active
same,Activity,Mus musculus [5],Active
same,viability at 10 µM,HCC827 [31],50.6%
same,Activity,[6],Active
same,inhibition in vivo at 20 mg/kg,MC-38 [7],57.4%
same,Activity,[8],inactive
same,Activity,[9],Active
same,Activity,[10],Dose-Dependent Effect
same,Activity,[11],Active
same,Activity,Mus musculus [12],Active
same,Activity,[32],60.9%
same,Activity,[13],Active
same,Activity,[14],inactive
same,Activity,Mus musculus [15],Active
same,Activity,[16],Active
same,Activity,[17],inactive
same,Activity,Mus musculus [18],Active
same,Activity,[19],inactive
same,Activity,Mus musculus [21],Active
same,Activity,[22],Active
same,Activity,Mus musculus [23],Active
same,Activity,Mus musculus [24],Active
same,inhibition in vivo at 10 mg/kg,MC-38 [25],48.7%
same,Activity,[26],Active
same,Kd,[28],301 nM
same,Activity,[1],Dose-Dependent Effect
same,Activity,[29],Non-Toxic
same,IC50,[30],197 nM
N#Cc1cncc(COc2cc(OCc3cccc(-c4ccccc4F)c3Cl)ccc2CNCCO)c1,Activity,HCC827 [2],inactive
same,Kd,[28],20.2 nM
